Key:
[1] = biological target: Recombinant human CSF1R kinase (Homo sapiens (Human), UniProt P07333); experiment: Measurement of CSF1R kinase activity at molecular level (Z-LYTE); assay type: biochemical; details: Z-LYTE Tyr 1 peptide
Method: Invitrogen, PV3227; • Development reagent B: Invitrogen, PV3295; • Development buffer: Invitrogen. P3127; • Stopping solution: Invitrogen, P3094; • Recombinant human CSF1R kinase: Invitrogen, P[…]; • 384 well plate, black: Corning. 3575; • Envision: Perkin Elmer. 2. […] The test compound was diluted in gradient to 4-fold the reaction concentration and the concentration of DMSO was kept at 8%. […] The mixture was mixed gently with a pipette. • 4) A phosphorylated peptide substrate solution (PP solution): 0.4 μL of Z-LYTETM Tyr1 phosphorylated peptide substrate was added to 99.6 μl of 1.33× kinase buffer. • 5) ATP solution: 10 mM of ATP was diluted to 760 μM with 1.33× kinase buffer to prepare ATP solution. • 6) Development solution: Development reagent B was diluted with Development buffer at a ratio of 1:200. 3. […] 2.5 μL of 4× test compound was added to each reaction well of the 384 plate, and the corresponding volume of 8% DMSO was added to the control well. The plate was placed on ice. […] After adding the reaction components, the 384-well plate was sealed and incubated at 25-30° C. for 1 h in dark. 2) Development Reaction 5 μL of Development solution was added to each well, sealed and incubated at 25-30° C. for another 1 h in dark. 3) Reaction Stopping and Plate Reading 5 μL of stopping solution was added to each well. The Coumarin value (excitation at 400 nm, emission at 445 nm) and Fluorescein value (excitation at 400 nm, emission at 520 nm) were measured, respectively. 4. […] Coumarin emission read-out (445 nm)/Fluorescein emission read-out (520 nm); • C3 445 nm: 100% phosphorylated Coumarin emission read-out; • C3 520 nm: 100% phosphorylated Fluorescein emission read-out; • C1 445 nm: 0% phosphorylated Coumarin emission read-out; • C1 520 nm: 0% phosphorylated Fluorescein emission read-out. […] 5. IC50 values: calculated by using software XL-FitTM (version 5.3) supplied by ID Business Solutions (Guildford, UK), which is an additional software to Microsoft Excel.

[2] = biological target: CSF1R phosphorylation in THP-1 cells (Homo sapiens (Human), UniProt P07333); experiment: Detection of CSF1R phosphorylation activity at cell level (p-CSF1R ELISA, M-CSF stimulated THP-1 cells); assay type: cell-based; details: THP-1 cells, M-CSF stimulation, p-CSF1R ELISA; read-out: IC50
CSF1R phosphorylation in THP-1 cells, sequence (P07333 20-972): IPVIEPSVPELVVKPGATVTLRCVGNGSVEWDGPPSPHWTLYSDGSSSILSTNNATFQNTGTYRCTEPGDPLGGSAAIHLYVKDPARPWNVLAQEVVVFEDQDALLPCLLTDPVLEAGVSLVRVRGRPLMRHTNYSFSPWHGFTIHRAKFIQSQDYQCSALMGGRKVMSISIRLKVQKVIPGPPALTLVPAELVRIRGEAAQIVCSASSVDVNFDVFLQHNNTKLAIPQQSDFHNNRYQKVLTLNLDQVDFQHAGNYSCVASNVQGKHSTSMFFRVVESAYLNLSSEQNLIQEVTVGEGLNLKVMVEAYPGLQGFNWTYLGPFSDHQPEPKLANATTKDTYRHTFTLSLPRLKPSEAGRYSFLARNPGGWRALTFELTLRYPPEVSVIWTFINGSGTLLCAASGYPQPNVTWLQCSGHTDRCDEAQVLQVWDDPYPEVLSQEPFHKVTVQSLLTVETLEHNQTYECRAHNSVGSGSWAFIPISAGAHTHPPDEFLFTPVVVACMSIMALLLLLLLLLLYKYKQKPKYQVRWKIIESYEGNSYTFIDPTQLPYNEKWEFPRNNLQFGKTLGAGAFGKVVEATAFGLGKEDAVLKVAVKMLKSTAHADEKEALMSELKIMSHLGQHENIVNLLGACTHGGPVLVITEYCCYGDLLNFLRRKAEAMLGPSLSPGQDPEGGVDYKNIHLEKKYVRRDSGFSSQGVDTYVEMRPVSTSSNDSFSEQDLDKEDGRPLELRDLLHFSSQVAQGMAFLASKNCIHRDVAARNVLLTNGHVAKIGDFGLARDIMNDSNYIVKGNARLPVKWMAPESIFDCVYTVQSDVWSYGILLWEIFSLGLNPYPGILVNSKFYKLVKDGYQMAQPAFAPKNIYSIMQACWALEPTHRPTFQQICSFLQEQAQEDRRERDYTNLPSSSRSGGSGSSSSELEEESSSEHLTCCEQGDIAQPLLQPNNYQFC
Method: THP-1 (ATCC), human acute monocytic leukemia cells.
3. Treatment of cells and preparation of lysis buffer
5 μL. of the diluted compound was added to the 50 μL cell culture system, the culture was cultured in a 5% CO2, 37° C. cell incubator for 60 min, 300 ng/mL of M-CSF was added to the cells, and the mixture was stimulated in the 37° C. cell incubator for 1 min, added 50 μL of cell lysis buffer, and stored in a refrigerator at −80° C.
100 μL/well of the p-CSF1R capture antibody diluted to 0.8 μg/mL with PBS was added to the ELISA plate, and the plate was coated on a shaker at room temperature overnight. The culture was washed with PBST, and then added blocking solution and incubated at room temperature for 2 h. The culture was washed with PBST, added 90 μL of cell lysis buffer, and incubated on a shaker at 25° C. for 2 h. The plate was washed with PBST three times, added 100 μL of anti-p-tyrosine-HRP detection antibody diluted with 0.1% PBS-BSA diluent, and incubated on a shaker at 25° C. for 2 h. The plate was washed with PBST washing liquid, added 100 μL of chromogenic substrate and incubated at room temperature for 10-20 min. The reaction was stopped by adding 50 μL of 2N H2SO4. The optical density signal (450/570 nm) of each well was detected in Labsystems Multiskan K3 or Envision.
wherein • Drug-treated well read-out: indicating the optical density signal of a cell well with the test compound treatment. • Background read-out: indicating the optical density signal of a well without cells but with cell lysis buffer. • Cell well read-out: indicating the optical density signal of a cell well not treated with the compound.
6. Calculation of IC50: obtained by using XL-Fit 5.3 software, […]

Recombinant human CSF1R kinase, sequence (P07333 20-972): as above

| IC50 [1] | IC50 [2] | SMILES |
| --- | --- | --- |
| 17 nM | 154 nM | COc1ccc([C@@H]2COc3cc(Oc4ccc5nccc(=O)n5c4)cnc3O2)cn1 [Compound 85] |
| 30 nM | 114 nM | O=c1ccnc2ccc(Oc3cnc4c(c3)OC[C@H](c3ccc(C5CC5)cn3)O4)cn12 [Compound 71] |
| 33 nM | 140 nM | COc1ccc(CCOc2ncc(Oc3ccc4ncc(C)c(=O)n4c3)cc2OC)cc1 [Compound 37] |
| 8 nM | 56 nM | COc1ccc([C@@H]2COc3cc(Oc4ccc5ncc(C)c(=O)n5c4)cnc3O2)cn1 [Compound 86] |
| 6 nM | 21 nM | COc1ccc([C@H]2COc3cc(Oc4ccnc(-c5cnn(C)c5)c4)cnc3O2)cc1 [Compound 68] |
| 5 nM | 50 nM | O=c1ccnc2ccc(Oc3cnc4c(c3)OC[C@@H](c3ccc(C5CC5)nc3)O4)cn12 [Compound 59] |
| 6 nM | 10 nM | COc1ccc(COc2ncc(Oc3ccc4ncc(N5CCOCC5)c(=O)n4c3)cc2OC)cc1 [Compound 31] |
| 10 nM | 32 nM | COc1ccc([C@H]2COc3cc(Oc4ccnc(-c5cnn(C)c5)c4)cnc3O2)nc1 [Compound 81] |
| 8 nM | 84 nM | COc1ccc([C@H]2COc3cc(Oc4ccc5ncc(C)c(=O)n5c4)cnc3O2)cn1 [Compound 84] |
| 44 nM | 80 nM | COc1cc(Oc2ccc3ncc(C)c(=O)n3c2)cnc1OCc1cccc(C(C)(C)C#N)c1 [Compound 10] |
| 81 nM |  | Cc1cnc2ccc(Oc3ccc(OCc4ccc(F)cc4)nc3)cn2c1=O [Compound 3] |
| 13 nM | 78 nM | Cc1cnc2ccc(Oc3cnc(OCc4ccc(C5CC5)cc4)nc3)cn2c1=O [Compound 42] |
| 12 nM | 14 nM | O=c1ccnc2ccc(Oc3cnc4c(c3)OCC(c3ccc(C5CC5)cc3)O4)cn12 (racemic) [Compound 56, (R/S)-7-((3-(4-cyclopropylphenyl)-2,3-dihydro-[1,4]dioxino[2,3-b]pyridin-7-yl)oxy)-4H-pyrido[1,2-a]pyrimidin-4-one] |
| 61 nM | 164 nM | COc1cc(Oc2ccc3ncc(C)c(=O)n3c2)cnc1OCc1ccc(C2CC2)cc1F [Compound 11] |
| 24 nM | 60 nM | COc1ccc(COc2ncc(Oc3ccc4ncc(C)c(=O)n4c3)cc2F)cc1 [Compound 20] |
| 6 nM | 108 nM | COc1cc(Oc2ccc3ncc(C)c(=O)n3c2)cnc1OCc1cccc(Cl)c1 [Compound 26] |
| 67 nM | 29 nM | COc1cc(Oc2ccc3ncc(C)c(=O)n3c2)cnc1OCc1ccc(C(C)C)cc1 [Compound 8] |
| 6 nM | 12 nM | COc1cc(Oc2ccc3ncc(N)c(=O)n3c2)cnc1OCc1ccc(C)cc1 [Compound 35] |
| 6 nM | 52 nM | O=c1ccnc2ccc(Oc3cnc4c(c3)OC[C@H](c3ccc(C5CC5)nc3)O4)cn12 [Compound 60] |
| 5 nM | 129 nM | COc1cc(Oc2ccc3ncc(C)c(=O)n3c2)cnc1OCc1ccc(-n2cccn2)cc1 [Compound 23] |
| 8 nM | 18 nM | Cc1cnc2ccc(Oc3cnc4c(c3)OC[C@@H](c3ccc(C5CC5)cn3)O4)cn2c1=O [Compound 76] |

| IC50 [1] | IC50 [2] | SMILES |
| --- | --- | --- |
| 2 nM | 22 nM | Cn1cc(-c2cc(Oc3cnc4c(c3)OCC(c3ccc(C5CC5)nc3)O4)ccn2)cn1 (racemic) [Compound 54, (R/S)-3-(6-cyclopropylpyridin-3-yl)-7-((2-(1-methyl-1H-pyrazol-4-yl)pyridin-4-yl)oxy)-2,3-dihydro-[1,4]dioxino[2,3-b]pyridine] |
| 7 nM | 138 nM | COc1ccc([C@H]2COc3cc(Oc4ccc5nccc(=O)n5c4)cnc3O2)cn1 [Compound 83, (S)-7-((3-(6-methoxypyridin-3-yl)-2,3-dihydro-[1,4]dioxino[2,3-b]pyridin-7-yl)oxy)-4H-pyrido[1,2-a]pyrimidin-4-one] |
| 19 nM | 34 nM | OCCn1cc(-c2cc(Oc3cnc4c(c3)OCC(c3ccc(C5CC5)cc3)O4)ccn2)cn1 (centres unmarked) [Compound 52, 2-(4-(4-((3-(4-cyclopropylphenyl)-2,3-dihydro-[1,4]dioxino[2,3-b]pyridin-7-yl)oxy)pyridin-2-yl)-1H-pyrazol-1-yl)ethan-1-ol] |
| 15 nM |  | C#Cc1ccc(COc2ncc(Oc3ccc4ncc(C)c(=O)n4c3)cc2OC)cc1 [Compound 7] |
| 23 nM | 551 nM | Cc1cnc2ccc(Oc3cnc(OCc4ccc(Cl)cc4)nc3)cn2c1=O [Compound 41] |
| 8 nM | 17 nM | COc1cc(Oc2ccc3ncc(C)c(=O)n3c2)cnc1OCc1ccc(C2CC2F)cc1 (centres unmarked) [Compound 13] |
|  | 31 nM | COc1cc(Oc2ccc3ncc(C)c(=O)n3c2)cnc1OCc1ccc(Cl)cc1 [Compound 19, 7-((6-((4-chlorobenzyl)oxy)-S-methoxypyridin-3-yl)oxy)-3-methyl-4H-pyrido[1,2-a]pyrimidin-4-one] |
| 13 nM | 5 nM | COc1cc(Oc2ccnc(-c3cnn(C)c3)c2)cnc1OCc1ccc(C2CC2)cc1 [Compound 12] |
| 30 nM | 182 nM | COc1ccc([C@H]2COc3cc(Oc4ccc5ncc(C)c(=O)n5c4)cnc3O2)nc1 [Compound 79] |
| 8 nM | 4 nM | COc1cc(Oc2ccc3nccc(=O)n3c2)cnc1OCc1ccc(C2CC2)cc1 [Compound 25] |
| 8 nM | 7 nM | O=c1ccnc2ccc(Oc3cnc4c(c3)OCC(c3ccc(C5CC5)cc3)O4)cn12 (racemic) [Compound 55, (R/S)-7-((3-(4-cyclopropylphenyl)-2,3-dihydro-[1,4]dioxino[2,3-b]pyridin-7-yl)oxy)-4H-pyrido[1,2-a]pyrimidin-4-one] |
| 10 nM | 15 nM | COc1cc(Oc2ccc3ncc(C)c(=O)n3c2)cnc1OCc1ccc(C2CC2(F)F)cc1 (centres unmarked) [Compound 15] |
| 10 nM | 42 nM | COc1ccc([C@H]2COc3cc(Oc4ccc5nccc(=O)n5c4)cnc3O2)cc1 [Compound 64] |
| 10 nM | 56 nM | COc1ccc([C@H]2COc3cc(Oc4ccc5ncc(C)c(=O)n5c4)cnc3O2)cc1 [Compound 66] |
| 24 nM | 381 nM | COc1ccccc1CCOc1ncc(Oc2ccc3ncc(C)c(=O)n3c2)cc1OC [Compound 38] |
| 129 nM |  | Cc1cnc2ccc(Oc3ccc(OCc4ccc(F)c(Cl)c4)nc3)cn2c1=O [Compound 4] |
| 150 nM |  | COc1ccc(COc2ncc(Oc3ccc4ncc(N)c(=O)n4c3)cc2C)cc1 [Compound 33] |
| 499 nM |  | COc1ccc(COc2ncc(Oc3ccc4ncc(C)c(=O)n4c3)cc2C)cc1 [Compound 34] |
| 460 nM |  | COc1ccc(COc2ncc(Oc3ccc4ncc(C)c(=O)n4c3)cc2C#N)cc1 [Compound 30] |
| 80 nM |  | COc1ccc([C@H]2COc3cc(Oc4ccc5nccc(=O)n5c4)cnc3O2)nc1 [Compound 77] |
| 70 nM |  | COc1cc(Oc2ccc3ncc(C)c(=O)n3c2)cnc1OCc1ccc(C(C)(C)C#N)cc1 [Compound 28] |

| SMILES | IC50 [1] | IC50 [2] |
| --- | --- | --- |
| Cc1cnc2ccc(Oc3cnc4c(c3)OCC(c3ccc(C5CC5)cc3)O4)cn2c1=O (centres unmarked) [Compound 45, 7-((3-(4-cyclopropylphenyl)-2,3-dihydro-[1,4]dioxino[2,3-b]pyrin-7-yl)oxy)-3-methyl-4H-pyrido[1,2-a]pyrimidin-4-one] | 36 nM | 61 nM |

— patent US20240092774A1, “HETEROAROMATIC COMPOUNDS AND USES THEREOF” (HUTCHISON MEDIPHARMA LIMITED, priority 2020, published 2024)
